Reference: PubChem BioAssay (NCI)
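All cell lines were grown in 96-well plates and treated with compound for 48 hours. GI50: concentration for 50% inhibition of growth. TGI: total growth inhibition.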

Legend:
Assay in all cases: NCI-60 cell line screen, 48 h
DU-145 prostate = tested on: DU-145 prostate
HCT-116 colon = tested on: HCT-116 colon
SNB-19 CNS = tested on: SNB-19 CNS
OVCAR-5 ovarian = tested on: OVCAR-5 ovarian
SW-620 colon = tested on: SW-620 colon
HCT-15 colon = tested on: HCT-15 colon
HCC-2998 colon = tested on: HCC-2998 colon
HL-60(TB) leukemia = tested on: HL-60(TB) leukemia
SN12C renal = tested on: SN12C renal
SK-MEL-5 melanoma = tested on: SK-MEL-5 melanoma
SK-MEL-2 melanoma = tested on: SK-MEL-2 melanoma
BT-549 breast = tested on: BT-549 breast
U251 CNS = tested on: U251 CNS
SNB-75 CNS = tested on: SNB-75 CNS
NCI-H522 lung = tested on: NCI-H522 lung
UACC-257 melanoma = tested on: UACC-257 melanoma
MDA-MB-435 = tested on: MDA-MB-435
RPMI-8226 leukemia = tested on: RPMI-8226 leukemia
SF-268 CNS = tested on: SF-268 CNS
MDA-MB-231 breast = tested on: MDA-MB-231 breast
MOLT-4 leukemia = tested on: MOLT-4 leukemia
786-0 renal = tested on: 786-0 renal
A498 renal = tested on: A498 renal
SK-MEL-28 melanoma = tested on: SK-MEL-28 melanoma
ACHN renal = tested on: ACHN renal
OVCAR-8 ovarian = tested on: OVCAR-8 ovarian
MCF7 breast = tested on: MCF7 breast
HOP-62 NSCLC = tested on: HOP-62 NSCLC
UO-31 renal = tested on: UO-31 renal
CCRF-CEM leukemia = tested on: CCRF-CEM leukemia
KM12 colon = tested on: KM12 colon
COLO 205 colon = tested on: COLO 205 colon
SK-OV-3 ovarian = tested on: SK-OV-3 ovarian
RXF 393 renal = tested on: RXF 393 renal
HS 578T breast = tested on: HS 578T breast
HT29 colon = tested on: HT29 colon
NCI-H23 lung = tested on: NCI-H23 lung
T-47D breast = tested on: T-47D breast
LOX IMVI melanoma = tested on: LOX IMVI melanoma
CAKI-1 renal = tested on: CAKI-1 renal
TK-10 renal = tested on: TK-10 renal
NCI-H226 lung = tested on: NCI-H226 lung
MALME-3M melanoma = tested on: MALME-3M melanoma
PC-3 prostate = tested on: PC-3 prostate
NCI/ADR-RES ovarian = tested on: NCI/ADR-RES ovarian
IGROV1 ovarian = tested on: IGROV1 ovarian
M14 melanoma = tested on: M14 melanoma
SF-539 CNS = tested on: SF-539 CNS
SR leukemia = tested on: SR leukemia
UACC-62 melanoma = tested on: UACC-62 melanoma
SF-295 CNS = tested on: SF-295 CNS
A549 NSCLC = tested on: A549 NSCLC
K-562 leukemia = tested on: K-562 leukemia
EKVX NSCLC = tested on: EKVX NSCLC
OVCAR-4 ovarian = tested on: OVCAR-4 ovarian
OVCAR-3 ovarian = tested on: OVCAR-3 ovarian
NCI-H460 lung = tested on: NCI-H460 lung

Cc1nc(-[n+]2nc(-c3ccncc3)nn2-c2ccccc2)sc1C was tested, and the TGI (DU-145 prostate) was > 100 µM, the TGI (HCT-116 colon) was > 100 µM and the TGI (SNB-19 CNS) was > 100 µM. For the same compound, the TGI (OVCAR-5 ovarian) was > 100 µM, the TGI (SW-620 colon) was > 100 µM and the TGI (HCT-15 colon) was > 100 µM. For the same compound, the TGI (HCC-2998 colon) was > 100 µM, the TGI (HL-60(TB) leukemia) was > 100 µM and the TGI (SN12C renal) was > 100 µM. For the same compound, the TGI (SK-MEL-5 melanoma) was > 100 µM, the TGI (SK-MEL-2 melanoma) was > 100 µM and the TGI (BT-549 breast) was 41 µM. For the same compound, the TGI (U251 CNS) was > 100 µM, the TGI (SNB-75 CNS) was > 100 µM and the TGI (NCI-H522 lung) was 76.5 µM. The TGI (UACC-257 melanoma) was > 100 µM, the TGI (MDA-MB-435) was > 100 µM and the TGI (RPMI-8226 leukemia) was > 100 µM. For the same compound, the TGI (SF-268 CNS) was > 100 µM, the TGI (MDA-MB-231 breast) was > 100 µM and the TGI (MOLT-4 leukemia) was > 100 µM. The TGI (786-0 renal) was > 100 µM, the TGI (A498 renal) was > 100 µM and the TGI (SK-MEL-28 melanoma) was > 100 µM. For the same compound, the TGI (ACHN renal) was > 100 µM, the TGI (OVCAR-8 ovarian) was > 100 µM and the TGI (MCF7 breast) was > 100 µM. For the same compound, the TGI (HOP-62 NSCLC) was 31.9 µM, the TGI (UO-31 renal) was 50.4 µM and the TGI (CCRF-CEM leukemia) was > 100 µM. The TGI (KM12 colon) was > 100 µM, the TGI (COLO 205 colon) was > 100 µM and the TGI (SK-OV-3 ovarian) was 67.5 µM. For the same compound, the TGI (RXF 393 renal) was 45.9 µM, the TGI (HS 578T breast) was > 100 µM and the TGI (HT29 colon) was > 100 µM. The TGI (NCI-H23 lung) was > 100 µM, the TGI (T-47D breast) was > 100 µM and the TGI (LOX IMVI melanoma) was > 100 µM. For the same compound, the TGI (CAKI-1 renal) was > 100 µM, the TGI (TK-10 renal) was 99.1 µM and the TGI (NCI-H226 lung) was 95.9 µM. The TGI (MALME-3M melanoma) was > 100 µM, the TGI (PC-3 prostate) was > 100 µM and the TGI (NCI/ADR-RES ovarian) was > 100 µM. The TGI (IGROV1 ovarian) was > 100 µM, the TGI (M14 melanoma) was > 100 µM and the TGI (SF-539 CNS) was 69.2 µM. The TGI (SR leukemia) was > 100 µM, the TGI (UACC-62 melanoma) was > 100 µM and the TGI (SF-295 CNS) was > 100 µM. For the same compound, the TGI (A549 NSCLC) was > 100 µM, the TGI (K-562 leukemia) was > 100 µM and the TGI (EKVX NSCLC) was > 100 µM.

COc1ccc(O)c(C(=O)c2ccc(C(=O)N[C@H]3CCCNC[C@@H]3NC(=O)c3ccncc3)cc2)c1F was tested, and the GI50 (OVCAR-4 ovarian) was > 12.3 µM, the TGI (OVCAR-4 ovarian) was > 25 µM and the GI50 (OVCAR-3 ovarian) was 4.3 µM. For the same compound, the TGI (OVCAR-3 ovarian) was > 23 µM, the GI50 (DU-145 prostate) was 7.28 µM and the TGI (DU-145 prostate) was 24.5 µM. The GI50 (HCT-116 colon) was 12.3 µM, the TGI (HCT-116 colon) was > 25 µM and the GI50 (SNB-19 CNS) was 10.4 µM. For the same compound, the TGI (SNB-19 CNS) was > 25 µM, the GI50 (OVCAR-5 ovarian) was > 25 µM and the TGI (OVCAR-5 ovarian) was > 25 µM. For the same compound, the GI50 (SW-620 colon) was > 25 µM, the TGI (SW-620 colon) was > 25 µM and the GI50 (HCT-15 colon) was > 25 µM. For the same compound, the TGI (HCT-15 colon) was > 25 µM, the GI50 (HCC-2998 colon) was 9.74 µM and the TGI (HCC-2998 colon) was > 25 µM. The GI50 (HL-60(TB) leukemia) was > 23.5 µM, the TGI (HL-60(TB) leukemia) was > 25 µM and the GI50 (SN12C renal) was 3.61 µM. For the same compound, the TGI (SN12C renal) was > 25 µM, the GI50 (SK-MEL-5 melanoma) was 5.5 µM and the TGI (SK-MEL-5 melanoma) was > 17.8 µM. For the same compound, the GI50 (SK-MEL-2 melanoma) was 4.2 µM, the TGI (SK-MEL-2 melanoma) was > 22.4 µM and the GI50 (BT-549 breast) was 1.27 µM. For the same compound, the TGI (BT-549 breast) was 13.7 µM, the GI50 (U251 CNS) was 8.12 µM and the TGI (U251 CNS) was > 25 µM. The GI50 (SNB-75 CNS) was 0.0135 µM, the GI50 (NCI-H522 lung) was 7.69 µM and the TGI (NCI-H522 lung) was > 25 µM. For the same compound, the GI50 (UACC-257 melanoma) was > 25 µM, the TGI (UACC-257 melanoma) was > 25 µM and the GI50 (MDA-MB-435) was > 14.9 µM. The TGI (MDA-MB-435) was > 25 µM, the GI50 (RPMI-8226 leukemia) was 10.3 µM and the TGI (RPMI-8226 leukemia) was > 25 µM. The GI50 (SF-268 CNS) was 1.75 µM, the TGI (SF-268 CNS) was > 20.6 µM and the GI50 (MDA-MB-231 breast) was > 25 µM. For the same compound, the TGI (MDA-MB-231 breast) was > 25 µM, the GI50 (MOLT-4 leukemia) was 1.38 µM and the TGI (MOLT-4 leukemia) was 11.6 µM. The GI50 (786-0 renal) was 3.07 µM, the TGI (786-0 renal) was > 20.2 µM and the GI50 (A498 renal) was 0.331 µM. The TGI (A498 renal) was 3.26 µM, the GI50 (SK-MEL-28 melanoma) was > 18.4 µM and the TGI (SK-MEL-28 melanoma) was > 25 µM. For the same compound, the GI50 (ACHN renal) was 11.5 µM, the TGI (ACHN renal) was > 25 µM and the GI50 (OVCAR-8 ovarian) was 5.5 µM. For the same compound, the TGI (OVCAR-8 ovarian) was > 21.3 µM, the GI50 (MCF7 breast) was 0.823 µM and the TGI (MCF7 breast) was > 25 µM. The GI50 (HOP-62 NSCLC) was 4.39 µM, the TGI (HOP-62 NSCLC) was > 21.1 µM and the GI50 (UO-31 renal) was > 18.9 µM. The TGI (UO-31 renal) was > 25 µM, the GI50 (CCRF-CEM leukemia) was 0.721 µM and the TGI (CCRF-CEM leukemia) was 6.42 µM. The GI50 (KM12 colon) was 3.1 µM, the TGI (KM12 colon) was > 16.5 µM and the GI50 (COLO 205 colon) was > 25 µM. The TGI (COLO 205 colon) was > 25 µM, the GI50 (SK-OV-3 ovarian) was 5.57 µM and the TGI (SK-OV-3 ovarian) was > 25 µM. For the same compound, the GI50 (RXF 393 renal) was 1.44 µM, the TGI (RXF 393 renal) was 15 µM and the GI50 (HS 578T breast) was 0.0882 µM. For the same compound, the TGI (HS 578T breast) was 12.5 µM, the GI50 (HT29 colon) was 16.3 µM and the TGI (HT29 colon) was > 25 µM. The GI50 (NCI-H23 lung) was 2.63 µM, the TGI (NCI-H23 lung) was > 25 µM and the GI50 (T-47D breast) was 0.463 µM. The TGI (T-47D breast) was > 25 µM, the GI50 (LOX IMVI melanoma) was 7.38 µM and the TGI (LOX IMVI melanoma) was > 25 µM. The GI50 (CAKI-1 renal) was > 25 µM, the TGI (CAKI-1 renal) was > 25 µM and the GI50 (TK-10 renal) was 0.684 µM. The TGI (TK-10 renal) was > 25 µM, the GI50 (NCI-H226 lung) was > 25 µM and the TGI (NCI-H226 lung) was > 25 µM. For the same compound, the GI50 (MALME-3M melanoma) was 1.47 µM, the TGI (MALME-3M melanoma) was > 25 µM and the GI50 (PC-3 prostate) was > 21.6 µM. The TGI (PC-3 prostate) was > 25 µM, the GI50 (NCI-H460 lung) was 10.5 µM and the TGI (NCI-H460 lung) was > 25 µM. The GI50 (NCI/ADR-RES ovarian) was > 25 µM, the TGI (NCI/ADR-RES ovarian) was > 25 µM and the GI50 (IGROV1 ovarian) was 3.74 µM. For the same compound, the TGI (IGROV1 ovarian) was > 25 µM, the GI50 (M14 melanoma) was 6.43 µM and the TGI (M14 melanoma) was > 22.4 µM. The GI50 (SF-539 CNS) was 0.624 µM, the TGI (SF-539 CNS) was 7.68 µM and the GI50 (SR leukemia) was 0.63 µM. For the same compound, the TGI (SR leukemia) was 12.7 µM, the GI50 (UACC-62 melanoma) was 9.26 µM and the TGI (UACC-62 melanoma) was > 25 µM. The GI50 (SF-295 CNS) was 1.9 µM, the TGI (SF-295 CNS) was > 18.9 µM and the GI50 (A549 NSCLC) was 16.3 µM. For the same compound, the TGI (A549 NSCLC) was > 25 µM, the GI50 (K-562 leukemia) was 7.78 µM and the TGI (K-562 leukemia) was > 25 µM.
